Results: ChEMBL document CHEMBL1150786, “Relationship of blood level and susceptibility in voriconazole treatment of histoplasmosis” (2007)
Values after ≈ are worked out from the molar mass of the structure shown.

What was measured:
Histoplasma capsulatum [1] = assay: Antimicrobial activity against Histoplasma capsulatum isolates form AIDS patient with primary histoplasmosis by modified CLSI method; format: functional
Histoplasma capsulatum [2] = assay: Antimicrobial activity against Histoplasma capsulatum isolates form AIDS patient with relapsed histoplasmosis by modified CLSI method; format: functional

C[C@@H](c1ncncc1F)[C@](O)(Cn1cncn1)c1ccc(F)cc1F [VORICONAZOLE]
MIC (Histoplasma capsulatum [1]): 0.015 µg/mL (≈ 0.0429 µM)
MIC (Histoplasma capsulatum [2]): 0.03 µg/mL (≈ 0.0859 µM)
